Here are results for 5 compounds from US10975068B2, “6-aminopyridin-3-yl thiazoles as modulators of RORγT” (Janssen Pharmaceutica NV, priority 2016, dated 2021).

Structures are written as SMILES. pKd: −log10 of the molar value.

Chain of human RORγt ligand binding domain (RORγt LBD) (P51449 other isoform, or with tags, fused parts or gaps): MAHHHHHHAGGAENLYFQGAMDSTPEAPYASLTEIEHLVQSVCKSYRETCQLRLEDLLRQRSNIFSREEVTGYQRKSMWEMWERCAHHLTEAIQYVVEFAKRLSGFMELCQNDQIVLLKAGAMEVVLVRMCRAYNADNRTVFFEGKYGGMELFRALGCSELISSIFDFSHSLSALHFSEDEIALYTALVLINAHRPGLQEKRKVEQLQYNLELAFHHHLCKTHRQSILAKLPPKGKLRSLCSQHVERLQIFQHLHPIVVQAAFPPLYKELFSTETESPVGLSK

The assay concerns the target human RORγt ligand binding domain (RORγt LBD) (Homo sapiens (Human), UniProt P51449). Nature of the assay: RORγt ThermoFluor® assay (thermal shift binding). The note with it: read-out: ThermoFluor® Assay, Kd. The procedure, abridged: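 His-tagged human RORγt LBD (0.065 mg/mL) with 60 μM 1,8-ANS in 100 mM Hepes pH 7.0, 10 mM NaCl, 2.5 mM GSH, 0.002% Tween-20 was heated at 1 °C/min.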
For orientation: In DSF a fluorescence change marks the thermal transition of the protein.
A word on the pKd: it is −log10 of the Kd, conventionally taken in molar units. Consider `C[C@H](Nc1cc(C(F)F)c(-c2sc(C(=O)NCC(C)(C)O)nc2C(=O)N2CCCC[C@@H]2C)cn1)C(F)(F)F` [Example 144], for which the pKd is 8.82.
For the compound `C[C@H](NC(=O)c1nc(C(=O)N2CCC[C@@H]2C)c(-c2cnc(N[C@@H](C)C(F)(F)F)cc2C(F)F)s1)C(C)(C)O` [Example 199, 5-(4-(Difluoromethyl)-6-(((S)-1,1,1-trifluoropropan-2-yl)amino)pyridine-3-yl)-N—((S)-3-hydroxy-3-methylburan-2-yl)-4-((S)-2-methylpyrrolidine-1-carbonyl)thiazole-2-carboxamide], the pKd was 8.27.
To `C[C@H](Nc1cc(C(F)(F)F)c(-c2sc(C(=O)NCC(C)(C)O)nc2C(=O)N2CCCC[C@@H]2C)cn1)C(F)(F)F` [Example 47, N-(2-Hydroxy-2-methylpropyl)-4-((S)-2-methylpiperidine-1-carbonyl)-5-(4-(trifluoromethyl)-6-(((S)-1,1,1-trifluoropropan-2-yl)amino)pyridin-3-yl)thiazole-2-carboxamide] belongs 9.30; to `C[C@H]1CCCCN1C(=O)c1nc(C(=O)NCC(C)(C)O)sc1-c1cnc(NCC(C)(C)C)cc1C(F)(F)F` [Example 86, (S)—N-(2-Hydroxy-2-methylpropyl)-4-(2-methylpiperidine-1-carbonyl)-5-(6-(neopentylamino)-4-(trifluoromethyl)pyridin-3-yl)thiazole-2-carboxamide], 9.77; to `C[C@H](Nc1cc(C(F)(F)F)c(-c2sc(C(=O)NCC(C)(C)O)nc2C(=O)N2CCC[C@@H]2C)cn1)C1CC1` [Example 40, 5-(6-(((S)-1-Cyclopropylethyl)amino)-4-(trifluoromethyl)pyridin-3-yl)-N-(2-hydroxy-2-methylpropyl)-4-((S)-2-methylpyrrolidine-1-carbonyl)thiazole-2-carboxamide], 8.55.
